Assays:
human Bub1 = human Bub1 (Homo sapiens (Human), UniProt O43683); experiment: Bub1 kinase assay (TR-FRET); assay type: biochemical; conditions: 10 μM ATP; read-out: Bub1 avg (IC50 [mol/l])
Procedure, shortened: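 His6-tagged human Bub1 catalytic domain (aa 704-1085, insect-cell expressed, ~200 ng/ml) preincubated with compound 15 min, then reacted 60 min at 22 °C with 10 μM ATP and 1 μM biotinylated peptide (final) in pH 7.5 Tris buffer. Phosphopeptide detected by TR-FRET 665/620 ratio, normalised to no-inhibitor and no-enzyme controls.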

human kinase Mps-1 = human kinase Mps-1 (Homo sapiens (Human), UniProt P33981); experiment: Mps-1 kinase assay (TR-FRET); assay type: biochemical; conditions: 10 μM ATP; read-out: Mps1 avg (IC50 [mol/l])
Sequence of human kinase Mps-1 (P33981 whole entry): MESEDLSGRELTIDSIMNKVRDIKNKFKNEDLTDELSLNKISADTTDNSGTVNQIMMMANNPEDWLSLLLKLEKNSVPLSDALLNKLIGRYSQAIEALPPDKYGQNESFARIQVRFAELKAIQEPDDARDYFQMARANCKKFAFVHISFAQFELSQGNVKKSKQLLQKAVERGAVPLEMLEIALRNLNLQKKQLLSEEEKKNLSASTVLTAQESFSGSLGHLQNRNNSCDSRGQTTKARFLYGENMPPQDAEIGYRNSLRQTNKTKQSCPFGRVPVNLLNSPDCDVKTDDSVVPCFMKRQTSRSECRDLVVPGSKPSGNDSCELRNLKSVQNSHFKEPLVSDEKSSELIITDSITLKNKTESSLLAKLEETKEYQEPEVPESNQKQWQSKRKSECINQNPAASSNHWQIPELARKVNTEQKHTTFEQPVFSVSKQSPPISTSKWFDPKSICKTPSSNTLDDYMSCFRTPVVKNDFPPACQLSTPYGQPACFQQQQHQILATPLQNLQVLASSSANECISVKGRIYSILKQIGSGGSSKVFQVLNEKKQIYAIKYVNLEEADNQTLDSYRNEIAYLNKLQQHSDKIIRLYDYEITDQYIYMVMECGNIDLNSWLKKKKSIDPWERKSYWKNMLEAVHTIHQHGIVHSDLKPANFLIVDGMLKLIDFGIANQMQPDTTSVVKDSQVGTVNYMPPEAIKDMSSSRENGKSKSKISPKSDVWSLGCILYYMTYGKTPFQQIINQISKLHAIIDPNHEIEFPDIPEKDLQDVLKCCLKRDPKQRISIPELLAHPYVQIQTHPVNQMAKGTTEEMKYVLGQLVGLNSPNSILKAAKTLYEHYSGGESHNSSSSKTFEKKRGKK
Procedure, shortened: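 GST-tagged full-length human Mps-1 (~0.5 nM) preincubated 15 min with compound, then reacted 60 min at 22 °C with 10 μM ATP and 1 μM biotinylated peptide in Hepes pH 7.7 buffer. Phosphoproduct detected by TR-FRET (Eu anti-phospho-Ser/Thr, SA-XLent); 665/620 ratio normalised to no-inhibitor and no-enzyme controls.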

Sequence of human Bub1 (O43683 704-1085): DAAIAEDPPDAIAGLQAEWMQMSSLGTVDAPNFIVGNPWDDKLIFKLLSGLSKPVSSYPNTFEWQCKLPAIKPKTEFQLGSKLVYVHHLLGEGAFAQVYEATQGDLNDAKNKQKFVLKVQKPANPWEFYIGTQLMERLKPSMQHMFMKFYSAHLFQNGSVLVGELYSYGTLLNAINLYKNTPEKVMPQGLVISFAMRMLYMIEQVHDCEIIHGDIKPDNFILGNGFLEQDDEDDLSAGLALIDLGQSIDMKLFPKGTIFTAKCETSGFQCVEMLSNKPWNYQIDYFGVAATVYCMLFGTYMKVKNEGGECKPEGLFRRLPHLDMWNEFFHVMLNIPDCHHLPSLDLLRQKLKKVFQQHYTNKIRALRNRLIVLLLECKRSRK

SMILES | IC50 (human Bub1) | IC50 (human kinase Mps-1)
Cc1nsc(Nc2nc3c(C(F)(F)F)ccnc3s2)c1C(=O)Nc1ccc(F)c(F)c1 [Example 58, N-(3,4-Difluorophenyl)-3-methyl-5-{[7-(trifluoromethyl)[1,3]thiazolo[5,4-b]pyridin-2-yl]amino}-1,2-thiazole-4-carboxamide] | > 20 µM | 19 µM
Cc1nsc(Nc2cnccn2)c1C(=O)Nc1ccc(F)c(F)c1 [Example 65, N-(3,4-Difluorophenyl)-3-methyl-5-(pyrazin-2-ylamino)-1,2-thiazole-4-carboxamide] | > 20 µM | > 20 µM
CNC(=O)c1cnc(Nc2snc(C)c2C(=O)Nc2ccc(F)c(F)c2)cn1 [Example 75, 5-({4-[(3,4-Difluorophenyl)carbamoyl]-3-methyl-1,2-thiazol-5-yl}amino)-N-methylpyrazine-2-carboxamide] | > 20 µM | > 20 µM
Cc1nsc(Nc2cncc(-c3ncco3)n2)c1C(=O)Nc1ccc(Cl)c(F)c1 [Example 63, N-(4-Chloro-3-fluorophenyl)-3-methyl-5-{[6-(1,3-oxazol-2-yl)pyrazin-2-yl]amino}-1,2-thiazole-4-carboxamide] | > 20 µM | > 20 µM
CCc1ccccc1NC(=O)c1c(C)nsc1Nc1nccc(-c2ccccc2)n1 [Example 5, N-(2-Ethylphenyl)-3-methyl-5-[(4-phenylpyrimidin-2-yl)amino]-1,2-thiazole-4-carboxamide] | > 20 µM | > 20 µM
COC(=O)c1cncc(Nc2snc(C)c2C(=O)Nc2ccc(F)c(F)c2)n1 [Example 66, Methyl 6-({4-[(3,4-difluorophenyl)carbamoyl]-3-methyl-1,2-thiazol-5-yl}amino)-pyrazine-2-carboxylate] | > 20 µM | > 20 µM
Cc1cncc(Nc2snc(C)c2C(=O)Nc2ccc(F)c(F)c2)n1 [Example 69] | > 20 µM | > 20 µM
COc1ccc(NC(=O)c2c(C)nsc2Nc2cnc3ccccc3n2)cn1 [Example 94, N-(6-Methoxypyridin-3-yl)-3-methyl-5-(quinoxalin-2-ylamino)-1,2-thiazole-4-carboxamide] | > 20 µM | > 20 µM
COc1ccc(NC(=O)c2c(C)nsc2Nc2cncc(C(F)(F)F)n2)cn1 [Example 84, N-(6-methoxypyridin-3-yl)-3-methyl-5-{[6-(trifluoromethyl)pyrazin-2-yl]amino}-1,2-thiazole-4-carboxamide] | > 20 µM | > 20 µM

The remaining lines, values ahead:

IC50 (human Bub1) | IC50 (human kinase Mps-1) | SMILES
> 20 µM | > 20 µM | COC(=O)c1cnc(Nc2snc(C)c2C(=O)Nc2ccc(F)c(F)c2)cn1 [Example 59, Methyl 5-({4-[(3,4-difluorophenyl)carbamoyl]-3-methyl-1,2-thiazol-5-yl}amino)-pyrazine-2-carboxylate]
1.7 µM | > 20 µM | CNC(=O)c1cncc(Nc2snc(C)c2C(=O)Nc2ccc(F)c(F)c2)n1 [Example 70, 6-({4-[(3,4-Difluorophenyl)carbamoyl]-3-methyl-1,2-thiazol-5-yl}amino)-N-methylpyrazine-2-carboxamide]
6.2 µM | > 20 µM | CCNC(=O)c1cncc(Nc2snc(C)c2C(=O)Nc2ccc(F)c(F)c2)n1 [Example 73, 6-({4-[(3,4-Difluorophenyl)carbamoyl]-3-methyl-1,2-thiazol-5-yl}amino)-N-ethylpyrazine-2-carboxamide]
> 20 µM | > 20 µM | Cc1nsc(Nc2cncc(Cl)n2)c1C(=O)Nc1ccc(F)c(F)c1 [Example 71, 5-[(6-Chloropyrazin-2-yl)amino]-N-(3,4-difluorophenyl)-3-methyl-1,2-thiazole-4-carboxamide]
> 20 µM | > 20 µM | CNC(=O)c1ccc(Nc2snc(C)c2C(=O)Nc2ccc(F)c(F)c2)nn1 [Example 80, 6-({4-[(3,4-Difluorophenyl)carbamoyl]-3-methyl-1,2-thiazol-5-yl}amino)-N-methylpyridazine-3-carboxamide]
> 20 µM | > 20 µM | Cc1nsc(Nc2cnc3cc(C(F)(F)F)ccc3n2)c1C(=O)Nc1ccc(F)c(F)c1 [Example 60, N-(3,4-Difluorophenyl)-3-methyl-5-{[6-(trifluoromethyl)quinoxalin-2-yl]amino}-1,2-thiazole-4-carboxamide]
